From patent US7053108B2, “Indoline compounds” (Les Laboratoires Servier, priority 2002, dated 2006)

Tests used:
Type in all cases: in vivo
[1] = Social interaction test in the rat; conditions: 1 hour before the test, Sprague-Dawley rat, carrier 183 ± 7
Experimental: Social Interaction Test in the Rat
This test allows evaluation of the potential anxiolytic activity of the compounds. Male rats of the Sprague-Dawley strain (Charles River, Saint-Aubin-les-Elbeuf, France) weighing 240–260 g on arrival are isolated in individual cages for 5 days in dimly lit animal quarters (3–10 lux). The test is carried out on the final day and consists of placing the animals in pairs, matched by weight (±5 g), in a brightly lit enclosure (300 lux) for 10 minutes. The time spent by the animals in interacting with one another (grooming, chasing, . . . ) is measured. The compound or the carrier is administered to the animals 1 hour before the test, each couple receiving the same treatment. The anxiolytic effect of a compound is reflected by an increased duration of interaction compared to that of animals to whom the carrier has been administered.

5-HT2c receptors = molecular target: T1, 5-HT2c receptors (Rattus norvegicus, UniProt P08909); assay: Penile erection test following administration of Ro 60-0175 (1.25 mg/kg, s.c.) in the rat; conditions: Wistar rat; for % inhibition of penile erections: Ro 60-0175 1.25 mg/kg s.c. 30 min later
T1 construct: from tissue; host or cells: whole living male Wistar rat (in vivo)
T1 sequence (P08909 33-460): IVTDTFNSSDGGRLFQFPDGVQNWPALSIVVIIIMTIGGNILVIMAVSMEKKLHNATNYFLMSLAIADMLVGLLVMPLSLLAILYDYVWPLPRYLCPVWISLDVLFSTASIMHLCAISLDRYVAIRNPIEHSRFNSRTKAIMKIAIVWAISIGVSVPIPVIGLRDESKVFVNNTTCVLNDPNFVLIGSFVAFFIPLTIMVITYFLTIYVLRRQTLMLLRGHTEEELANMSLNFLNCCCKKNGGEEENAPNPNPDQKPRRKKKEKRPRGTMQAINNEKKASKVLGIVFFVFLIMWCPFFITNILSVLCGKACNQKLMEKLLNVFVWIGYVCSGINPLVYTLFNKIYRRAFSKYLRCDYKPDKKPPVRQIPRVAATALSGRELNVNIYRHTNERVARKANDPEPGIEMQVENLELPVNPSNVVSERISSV
Experimental: Penile Erection Test Following Administration of Ro 60-0175 (1.25 mg/kg, s.c.) in the Rat
This test allows evaluation of the capacity of pharmacological agents to inhibit penile erections caused by administration of a selective 5-HT2c agonist, Ro 60-0175. Inhibition is therefore predictive of antagonist activity with respect to 5-HT2c receptors. Male rats of the Wistar strain (Iffa-Credo, L'Arbresle, France) weighing 120–140 g on the day of the experiment are placed separately in plexiglass observation boxes (7.5×18×30 cm) immediately after the compound or the carrier has been administered. Thirty minutes later, Ro 60-0175 (1.25 mg/kg, s.c.) is administered to the animals and the number of erections occurring during the next 30 minutes is counted.

[2] = tested on: extracellular concentrations of dopamine and noradrenaline in the frontal cortex; assay: Measurement of the extracellular concentrations of dopamine and noradrenaline in the frontal cortex of the conscious rat (microdialysis); conditions: 40.0 mg/kg p.o., 30 minutes post administration, frontal cortex dialysate
Experimental: Measurement of the Extracellular Concentrations of Dopamine and Noradrenaline in the Frontal Cortex of the Conscious Rat
Dialysis. The surgery is performed under pentobarbital-induced anaesthesia (60 mg/kg, i.p.). The rats are placed in a Kopf stereotaxic device and a cannula guide (CMA Microdialysis AB, Stockholm, Sweden) is implanted in the frontal cortex at the coordinates: anteroposterior: +2.2, lateral: ±0.6, ventral deviation: −0.2. The rats are placed in separate cages and recover from the anaesthesia over 5 days. […]
Chromatography. Dopamine (DA) and noradrenaline (NA) are simultaneously measured as follows: 20 μl of dialysate sample are diluted with 20 μl of mobile phase (75 mM NaH2PO4, 20 μM EDTA, 1 mM sodium decanesulphonate, 17.5% methanol, 0.01% triethylamine, pH: 5.70) and 33 μl are analysed by HPLC using, for separation, an inversephase column (Hypersil C18, 150×4.6 mm; particle size 5 μm) thermostatically controlled at 43° C. and, for quantification, a coulometric detector (ESA5014, Coulochem II, ESA, Chelmsford, USA). […]
The compound of Example 1 (40.0 mg/kg, p.o.) causes a substantial increase in the extracellular concentrations of DA and NA in the dialysates collected from the frontal cortex of conscious rats. The data are expressed as the mean ±S.E.M. The levels of DA and NA are expressed with respect to the mean values before administration of the drug. […]

Vogel conflict test = conditions: 30 minutes before test, 3 minutes, Wistar rat, carrier 77.1 ± 14.7
Experimental: The test is carried out in a transparent plastics cage (32×25×30 cm) located in a soundproofed and ventilated enclosure. The cage has a chrome steel floor. The metal tip of the drink-containing bottle enters the cage at a height of 6 cm above the metal floor. The floor and the tip of the bottle are connected by electric cables to an “Anxiometer” apparatus (Columbus Instruments, Ohio, USA), which records the licks of the animal and controls the administration of electric shocks.
For the 4 days preceding the test, the rats (male Wistar rats weighing 250–270 g) (3 per cage) have access to drink for only one hour per day. On the day before the test, the animals are isolated in cages, on grills, without food or drink, immediately after their final hour of access to drink. The test takes place on the 5th day. On the day of the test, the animal is given by gavage (p.o.) either the solvent (suspension of distilled water+Tween 80) (control) or the compound, 30 minutes before being placed in the test cage. The session begins as soon as the animal has carried out 20 licks and has received a first electric shock (between the metal tip and metal floor), (constant current, 0.5 sec. duration, 0.3 mA intensity). Subsequently, the animal receives an electric shock each time it carries out 20 licks, for a period of 3 minutes. Animals not having performed the first 20 licks of the session by the end of 5 minutes are withdrawn from the test. The results are the numbers of licks performed by the animal during the 3 minutes of the test.

What does the source list for `O=C(Nc1cccnc1)N1CCc2c1ccc1ccccc21` [Example 1, N-(3-Pyridyl)-1,2-dihydro-3H-benzo[e]indole-3-carboxamide]?
Duration of social interactions (s) mean ± s.e.m. (n) ([1]; 0.16 mg/kg p.o.): 187 ± 11 (5) s; Duration of social interactions (s) mean ± s.e.m. (n) ([1]; 0.63 mg/kg p.o., p < 0.05): 228 ± 11 (5) s; Duration of social interactions (s) mean ± s.e.m. (n) ([1]; 2.5 mg/kg p.o., p < 0.05): 242 ± 15 (5) s; Duration of social interactions (s) mean ± s.e.m. (n) ([1]; 10.0 mg/kg p.o., p < 0.05): 233 ± 10 (5) s; % inhibition of penile erections (5-HT2c receptors; 0.25 mg/kg p.o.): 12%; % inhibition of penile erections (5-HT2c receptors; 0.63 mg/kg p.o.): 16%; % inhibition of penile erections (5-HT2c receptors; 1.00 mg/kg p.o.): 50%; % inhibition of penile erections (5-HT2c receptors; 2.5 mg/kg p.o.): 88%; % inhibition of penile erections (5-HT2c receptors; 10.0 mg/kg p.o.): 100%; ED50 (5-HT2c receptors; po, inhibition of Ro 60-0175-induced penile erections, p.o., read-out: ID50 (inhibitory dose50)): 1.16 mg/kg; Extracellular DA level with respect to the mean values before administration (mean ±S.E.M.) ([2]; solvent = +3.9±9.8, in % (unit assumed)): +95.0±12.9; Extracellular NA level with respect to the mean values before administration (mean ±S.E.M.) ([2]; solvent = +8.7±11.9, in % (unit assumed)): +118.2±16.7; Punished licks (1 shock/20 licks) Mean ± s.e.m. (n) (Vogel conflict test; 2.5 mg/kg p.o.): 92.2 ± 20.7 (5); Punished licks (1 shock/20 licks) Mean ± s.e.m. (n) (Vogel conflict test; 10.0 mg/kg p.o.): 145.2 ± 46.3 (5); Punished licks (1 shock/20 licks) Mean ± s.e.m. (n) (Vogel conflict test; 40.0 mg/kg p.o., p < 0.05): 324.4 ± 70.7 (10)
